Experimental data taken from paper PMC12867150, “A fungi-derived cyclic peptide enhances Th9-mediated antitumor immunity by targeting ZAP70 and SREBP1” (The Journal of Clinical Investigation, 2025).
Where “and” joins values, the source holds several entries; their conditions need not be identical. Equal entries are not always repeated.

Key:
[1] = tested on: transferred CD45.1+ Th9 cells; assay: Cytokines and granzyme B/perforin in transferred CD45.1+ Th9 cells (Figure 3G, S4A-C); format: in vivo, mouse; parameters: IFN-γ expression / TNF-α expression / Expression of IFN-γ of transferred CD45.1⁺ OT-II Th9 cells in tumors / Expression of TNF-α of transferred CD45.1⁺ OT-II Th9 cells in tumors: unit not given here; details: for Expression of GzmB+Perforin+ of transferred CD45.1⁺ OT-II Th9 cells in tumor: Supplemental Figure 4C; for Expression of IFN-γ of transferred CD45.1⁺ OT-II Th9 cells in tumors: Supplemental Figure 4A; for Expression of TNF-α of transferred CD45.1⁺ OT-II Th9 cells in tumors: Supplemental Figure 4B
Method: C57BL/6 mice were subcutaneously injected with 5 × 10^5 B16-OVA melanoma cells. Five days after tumor implantation, mice received an intravenous infusion of 2 × 10^6 in vitro–differentiated Th9 cells (cultured for 5 days), which were derived from OT-II CD45.1 donor mice, accompanied by 4 × 10^5 OVA peptide–pulsed DCs via the tail vein. To enhance T cell engraftment and facilitate lymphodepletion, a single intraperitoneal injection of cyclophosphamide (200 mg/kg, Sigma, catalog C0768) was administered 1 day prior to T cell transfer. Mice were euthanized at designated time points for the collection and analysis of spleens, tumor-draining lymph nodes, and tumor tissues.
Details regarding staining panels (human and mouse), reagents (including clones and catalog numbers), acquisition settings, compensation/controls, and analysis procedures are provided in Supplemental Methods.
BioLegend, Cat. No. 422301 or Mouse TruStain FcX™, BioLegend, Cat. No. 101319) for 10 minutes at 4°C. For surface marker detection, cells were stained with fluorochrome-conjugated monoclonal antibodies in 96-well V-bottom plates and incubated on ice for 30 minutes. After staining, cells were washed twice and resuspended in FACS buffer for analysis.
Prior to intracellular cytokine staining, cells were restimulated for 4 hours with PMA (Absin, Cat. No. abs9107), ionomycin (Sigma-Aldrich, Cat. No. I0634), and brefeldin A (MedChemExpress, Cat. No. HY-16592). For intracellular cytokine staining, cells were first surface-stained as described above, then fixed and permeabilized using the BD Cytofix/Cytoperm™ kit (BD Biosciences, Cat. No. 554714) according to the manufacturer ’s protocol. Intracellular proteins were stained with directly conjugated antibodies targeting IL-9, IL-17a, IL-4, IFN-γ, TNF-α, FOXP3, p-ZAP70, Perforin, and […]
Antibodies used for mouse samples included those against IL-9 (PE, clone RM9A4, Biolegend, Cat. No. 514104), IFN-γ (PE, clone XMG1.2, Biolegend, Cat. No.
Cat. No. 103138), CD4 (APC/Cy7, clone E-AB-F1353UJ, Elabscience, Cat. No.
AF18028), CD8α (PerCP/Cy5.5, clone E-AB-F1104UJ, Elabscience, Cat. No. […]
clone E-AB-F1187UH, Elabscience, Cat. No. AF19854), TNF-α (BV421, clone MP6-XT22, Biolegend, Cat. No. 506328), FOXP3 (PE, clone FJK-16s, eBioscience, Cat. No.
Perforin (APC, clone S16009A, Biolegend, Cat. No. 154303) and Granzyme B (APC, clone QA16A02, Biolegend, Cat. No. 372203). For human samples, antibodies against CD4 (PerCP/Cy5.5, clone RPA-T4, Biolegend, Cat. No. 300530; APC/Cy7, clone OKT4, Biolegend, Cat. No. 317418), CD19 (APC/Cy7, clone SJ25C1, Biolegend, Cat.
No. 363009), IFN-γ (PE, clone 4S.B3, Biolegend, Cat. No. 502509), IL-9 (PE, clone

[2] = tested on: AKT, mTOR, and NF-κB signaling components; assay: Immunoblot of AKT, mTOR and NF-κB components (S7D); format: cell-based, mouse; details: result in words
Method: Detailed lysis conditions, SDS–PAGE and transfer procedures, primary/secondary antibodies (including clones and catalog numbers), molecular weight markers, ECL detection, and ImageJ (NIH) quantification are described in Supplemental Methods.
MH9A4, Biolegend, Cat. No. 507605, PE/Cy7, clone MH9A4, Biolegend, Cat. No. […]
clone Mab11, Biolegend, Cat. No. 502908), Perforin (APC, clone dG9, Biolegend, Cat.
Flow cytometric acquisition was performed using a BD Fortessa or Cytek Aurora cytometer. Data were analyzed with FlowJo software (v10.8.1 or newer). Fluorescence compensation, isotype-matched controls, and fluorescence-minus-one (FMO) controls were applied as appropriate for multicolor panel validation.
Cells were washed twice with PBS and lysed in 1 × lysis buffer (NCM, Cat. No.
WB3100) supplemented with a protease inhibitor cocktail (Solarbio, Cat. No. P1260).
Protein lysates were separated by SDS-polyacrylamide gel electrophoresis (SDS-PA G E ; YEASEN, Cat. No. 20325ES62) and transferred to PVDF membranes for […]
Membranes were probed with the following primary antibodies: ERK1/2 (clone […]
BioLegend, Cat. No. 369502), MEK1/2 (clone L38C12, Cell Signaling Technology, Cat.
No. 4694S), phospho -MEK1/2 (clone 41G9, Cell Signaling Technology, Cat. No. […]
(Proteintech, Cat. No. 10745 -1-AP), Total Akt (Cell Signaling Technolo gy, Cat. No. […]

[3] = transferred CD45.1+ Th9, spleen, individual mice, n = 4
[4] = transferred cells, tumor, result in words

anteiso-C15 Leu7 surfactin [EpA]
GzmB+ PRF1+ gate number ([1]; CD45.1+ T cells in tumors, representative flow plot, Figure S4C): 34.1 | GzmB and Perforin expression [1, 3]: 68.8 and 68 and 57.8 and 55.7 | IFN-γ expression [1, 3]: 3.05 and 4.37 and 6.82 and 2.23 | TNF-α expression [1, 3]: 23.2 and 21 and 17.5 and 23.6 | IFN-γ, TNF-α, granzyme B and perforin ([1]; transferred cells, spleen, result in words): markedly increased expression | IFN-γ expression [1, 4]: elevated | TNF-α levels [1, 4]: remained unchanged | granzyme B+ perforin+ frequency [1, 4]: significantly higher | Expression of GzmB+Perforin+ of transferred CD45.1⁺ OT-II Th9 cells in tumor ([1]; tumor, replicate 1): 20.5 | Expression of GzmB+Perforin+ of transferred CD45.1⁺ OT-II Th9 cells in tumor ([1]; tumor, replicate 2): 18.9 | Expression of GzmB+Perforin+ of transferred CD45.1⁺ OT-II Th9 cells in tumor ([1]; tumor, replicate 3): 25.9 | Expression of GzmB+Perforin+ of transferred CD45.1⁺ OT-II Th9 cells in tumor ([1]; tumor, replicate 4): 34.1 | Expression of IFN-γ of transferred CD45.1⁺ OT-II Th9 cells in tumors ([1]; replicate 1): 386 | Expression of IFN-γ of transferred CD45.1⁺ OT-II Th9 cells in tumors ([1]; replicate 2): 392 | Expression of IFN-γ of transferred CD45.1⁺ OT-II Th9 cells in tumors ([1]; replicate 3): 420 | Expression of IFN-γ of transferred CD45.1⁺ OT-II Th9 cells in tumors ([1]; replicate 4): 261 | Expression of TNF-α of transferred CD45.1⁺ OT-II Th9 cells in tumors ([1]; replicate 1): 916 | Expression of TNF-α of transferred CD45.1⁺ OT-II Th9 cells in tumors ([1]; replicate 2): 557 | Expression of TNF-α of transferred CD45.1⁺ OT-II Th9 cells in tumors ([1]; replicate 3): 913 | Expression of TNF-α of transferred CD45.1⁺ OT-II Th9 cells in tumors ([1]; replicate 4): 544 | AKT and NF-κB component phosphorylation [2]: not of AKT or NF-κB components | total and phosphorylated mTOR levels [2]: remained unchanged
